# In patent publication US9695193B2, “Inhibitors of Plasmodium falciparum equilibrative nucleoside transporter type I as anti-parasitic compounds” (The Trustees of Columbia University in the City of New York, priority 2013, dated 2017):
# Biological target: T1, PfENT1 (Plasmodium falciparum, UniProt Q8IDM6)
# T1 construct: expressed in transfected cells; host or cells: fui1Δ yeast (Saccharomyces cerevisiae), co-expressing GFP
# Format: cell-based
# Conditions: primary HTS, compounds at 10 μM, 125 μM 5-FUrd
# Description: A yeast-based high throughput screening (HTS) assay was used to identify compounds that inhibit PfENT1. The compounds described in this application were identified by screening four commercially available, chemical compound libraries obtained from Dr. Donald Landry's laboratory (Department of Medicine, Columbia University). These libraries contain approximately 80,000 unique chemical entities.
# In the primary screen the compounds were tested at a concentration of 10 μM. Hits were identified by the growth of fui1Δ yeast expressing PfENT1 and Green Fluorescent Protein (GFP) in the presence of the cytotoxic nucleoside 5-fluorouridine (5-FUrd). 5-FUrd is transported by PfENT1. PfENT1 expressing fui1Δ yeast will only grow in the presence of 125 μM 5-FUrd if a PfENT1 inhibitor blocks the uptake of 5-FUrd into the yeast. Significant yeast growth in the HTS in 384 well plates was determined by two criteria: 1) turbidity as determined by the optical density at 620 nm (OD620) and 2) GFP fluorescence intensity. […] Hits had to be positive by both criteria.
# T1 sequence (Q8IDM6 whole entry): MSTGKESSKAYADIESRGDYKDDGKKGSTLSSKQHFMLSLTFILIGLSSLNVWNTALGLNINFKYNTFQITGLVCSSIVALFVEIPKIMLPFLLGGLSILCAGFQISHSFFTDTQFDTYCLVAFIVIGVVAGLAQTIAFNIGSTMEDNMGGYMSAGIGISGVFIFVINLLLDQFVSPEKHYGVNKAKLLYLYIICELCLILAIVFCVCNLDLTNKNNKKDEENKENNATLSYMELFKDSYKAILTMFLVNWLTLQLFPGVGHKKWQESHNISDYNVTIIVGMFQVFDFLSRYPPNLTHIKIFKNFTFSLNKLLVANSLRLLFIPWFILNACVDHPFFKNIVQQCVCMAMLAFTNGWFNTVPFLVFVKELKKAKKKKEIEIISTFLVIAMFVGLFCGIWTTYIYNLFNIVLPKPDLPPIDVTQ
row,SMILES,Avg Normalized % maximal activity [%]
1,"COCc1cc(C)nc2sc(C(=O)Nc3ccc(C(=O)OC)cc3)c(N)c12 [compound 119, methyl 4-({[3-amino-4-(methoxymethyl)-6-methylthieno[2,3-b]pyridin-2-yl]carbonyl}amino)benzoate]",4.25
2,"Cc1cc(=O)oc2cc(OCc3nnc(-c4ccccc4)o3)ccc12 [compound 12, 4-methyl-7-[(5-phenyl-1,3,4-oxadiazol-2-yl)methoxy]-2H-chromen-2-one]",31.72
3,"Cc1cc(C)cc(C(=O)Nc2nnc(C)s2)c1 [compound 94, 3,5-dimethyl-N-(5-methyl-1,3,4-thiadiazol-2-yl)benzamide]",5.01
4,NCCc1cc(O)c(O)cc1O [compound 84],5.72
5,"O=[N+]([O-])c1ccc(C2Nc3c(F)cccc3C3C=CCC32)cc1 (centres unmarked) [compound 164, 6-fluoro-4-(4-nitrophenyl)-3a,4,5,9b-tetrahydro-3H-cyclopenta[c]quinoline]",2.01
6,CC(C)(C)c1nnc(NC(=O)c2cccc(Cl)c2)s1 [compound 68],6.79
7,"O=C(Nc1ccc(-c2nnc(-c3ccccc3)o2)cc1)C1CCCO1 (centres unmarked) [compound 42, N-[4-(5-phenyl-1,3,4-oxadiazol-2-yl)phenyl]tetrahydro-2-furancarboxamide]",10.16
8,"O=c1[nH]c(/C=C/c2ccccc2Cl)nc2ccccc12 [compound 18, 2-[2-(2-chlorophenyl)vinyl]-4(3H)-quinazolinone]",21.82
9,"COc1ccc(-c2nnc(OC)c3ccccc23)cc1 [compound 29, 1-methoxy-4-(4-methoxyphenyl) phthalazine]",13.58
10,"COc1cccc(C(=O)Nc2ccc(-c3nnc(-c4ccco4)o3)cc2)c1 [compound 35, N-{4-[5-(2-furyl)-1,3,4-oxadiazol-2-yl]phenyl}-3-methoxybenzamide]",11.40
11,"Cc1ccnc(NC(=O)c2ccc(NC(=O)c3ccco3)cc2)c1 [compound 14, N-(4-{[(4-methyl-2-pyridinyl)amino]carbonyl}phenyl)-2-furamide]",24.47
12,"CCOc1ccc(-c2noc(CCCC(=O)N3CCCCC3)n2)cc1OC [compound 25, 1-{4-[3-(4-ethoxy-3-methoxyphenyl)-1,2,4-oxadiazol-5-yl]butanoyl} piperidine]",15.69
13,"COc1c(C)cccc1C(=O)Nc1cc(-c2nc3ncccc3o2)ccc1C [compound 122, 2-methoxy-3-methyl-N-(2-methyl-5-[1,3]oxazolo[4,5-b]pyridin-2-ylphenyl)benzamide]",4.13
14,"Cc1ccccc1C(=O)Nc1ccc(-c2nc3ncccc3o2)cc1 [compound 105, 2-methyl-N-(4-[1,3]oxazolo[4,5-b]pyridin-2-ylphenyl)benzamide]",4.70
15,"O=C(Nc1nc2c(s1)C(=O)CCC2)c1ccccc1Cl [compound 24, 2-chloro-N-(7-oxo-4,5,6,7-tetrahydro-1,3-benzothiazol-2-yl)benzamide]",16.16
16,O=P1(N(CCCl)CCCl)NCCCO1 (centres unmarked) [compound 82],5.76
17,"CCSc1nnc(NC(=O)c2cc(Br)ccc2Cl)s1 [compound 125, 5-bromo-2-chloro-N-[5-(ethylthio)-1,3,4-thiadiazol-2-yl]benzamide]",3.89
18,"COc1ccc(-c2nnc(SCc3csc(C)n3)o2)cc1OC [compound 142, 2-(3,4-dimethoxyphenyl)-5-{[(2-methyl-1,3-thiazol-4-yl)methyl]thio}-1,3,4-oxadiazole]",3.09
19,COc1cc2c(cc1OC)-c1cc3ccc(OC)c(OC)c3c[n+]1CC2 [compound 72],6.56
20,"Cn1c(=O)oc2cc(S(=O)(=O)Nc3ccccc3Br)ccc21 [compound 150, N-(2-bromophenyl)-3-methyl-2-oxo-2,3-dihydro-1,3-benzoxazole-6-sulfonamide]",2.62
21,O=c1c2c3nc4ccccc4nc3n(Cc3ccco3)c2ncn1Cc1ccco1 [compound 166],1.98
22,"CCOC(=O)c1cc(NC(=O)c2ccco2)ccc1N1CCOCC1 [compound 51, ethyl 5-(2-furoylamino)-2-morpholin-4-ylbenzoate]",8.11

row,SMILES,Avg Normalized % maximal activity [%]
1,"COCc1cc(C)nc2sc(C(=O)Nc3ccc(NC(C)=O)cc3)c(N)c12 [compound 162, N-[4-(acetylamino)phenyl]-3-amino-4-(methoxymethyl)-6-methylthieno [2,3-b]pyridine-2-carboxamide]",2.04
2,"O=C(c1cc2nc3c(c(C(F)(F)F)n2n1)CCc1ccccc1-3)N1CCCC1 [compound 170, 10-(1-pyrrolidinyl-carbonyl)-7-(trifluoromethyl)-5,6-dihydrobenzo[h] pyrazolo[5,1-b] quinazoline]",1.74
3,"CNC(=O)c1nc(-c2ccc(Cl)cc2)no1 [compound 97, 3-(4-chlorophenyl)-N-methyl-1,2,4-oxadiazole-5-carboxamide]",4.86
4,C[C@@H]1C[C@@H](O[C@H]2[C@H](O[C@H]3CC[C@@]4(C)C(CC[C@]5(C)[C@@H]4CC=C4C6CC(C)(C)CC[C@]6(C(=O)O[C@@H]6O[C@H](CO[C@@H]7O[C@H](CO)[C@@H](O[C@@H]8O[C@@H](C)[C@H](O)[C@@H](O)[C@H]8O)[C@H](O)[C@H]7O)[C@@H](O)[C@H](O)[C@H]6O)CC[C@]45C)[C@]3(C)CO)OC[C@H](O)[C@@H]2O)[C@H](O)[C@H](O)[C@H]1O (some centres unmarked) [compound 38],10.61
5,"Cc1ccc(NC(=O)CSc2nc3cccnc3[nH]2)c(C)c1 [compound 157, N-(2,4-dimethylphenyl)-2-(3H-imidazo[4,5-b]pyridin-2-ylthio)acetamide]",2.12
6,"Cc1cc2nc(Nc3nc(=O)c(C)c(C)[nH]3)nc(C)c2cc1C [compound 144, 5,6-dimethyl-2-[(4,6,7-trimethyl-2-quinazolinyl)amino]-4(1H)-pyrimidinone]",3.04
7,"O=C(Nc1cccc(NC(=O)c2cccs2)c1)c1ccc(Br)o1 [compound 137, 5-bromo-N-{3-[(2-thienylcarbonyl)amino]phenyl}-2-furamide]",3.37
8,"CCc1nnc(NC(=O)c2sc3nc(C)cc(COC)c3c2N)s1 [compound 108, 3-amino-N-(5-ethyl-1,3,4-thiadiazol-2-yl)-4-(methoxymethyl)-6-methylthieno [2,3-b]pyridine-2-carboxamide]",4.66
9,CC(C)[C@@H]1CC[C@@H](C)CC1=O [compound 129],3.73
10,"CN1CCN(S(=O)(=O)c2ccc(C(=O)Nc3ccccc3)cc2)CC1 [compound 155, 4-[(4-methyl-1-piperazinyl)sulfonyl]-N-phenylbenzamide]",2.20
11,C#C[C@]1(O)CC[C@H]2[C@@H]3CCC4=C(CCC(=O)C4)[C@H]3CC[C@@]21C [compound 74],6.35
12,"CC(=O)c1ccc(NC(=O)CSc2nc3cc(C)ccc3[nH]2)cc1 [compound 147, N-(4-acetylphenyl)-2-[(5-methyl-1H-benzimidazol-2-yl)thio]acetamide]",2.77
13,"COc1ccc(Cl)cc1Nc1nnc(-c2cnccn2)s1 [compound 32, N-(5-chloro-2-methoxyphenyl)-5-(2-pyrazinyl)-1,3,4-thiadiazol-2-amine]",12.03
14,"Cc1ccc(NC(=O)CSc2nccn2C)cc1C [compound 115, N-(3,4-dimethylphenyl)-2-[(1-methyl-1H-imidazol-2-yl)thio]acetamide]",4.36
15,"O=C(Nc1cc(-c2nc3ccccc3[nH]2)ccc1Cl)c1ccco1 [compound 103, N-[5-(1H-benzimidazol-2-yl)-2-chlorophenyl]-2-furamide]",4.74
16,"O=C(Nc1ccc2oc(-c3cccnc3)nc2c1)c1ccc(Br)o1 [compound 85, 5-bromo-N-[2-(3-pyridinyl)-1,3-benzoxazol-5-yl]-2-furamide]",5.64
17,"COC(=O)c1ccccc1NC(=O)c1ccc(NC(=O)C2CCCO2)cc1 (centres unmarked) [compound 99, methyl 2-({4-[(tetrahydro-2-furanylcarbonyl)amino]benzoyl}amino)benzoate]",4.83
18,COc1ccc(-c2cnc3ccccc3n2)cc1NC(=O)c1ccncc1 [compound 15],24.18
19,"Cc1cc(-c2ccccc2)nc(SCc2nc3ccccc3c(=O)[nH]2)n1 [compound 141, 2-{[(4-methyl-6-phenyl-2-pyrimidinyl)thio]methyl}-4(3H)-quinazolinone]",3.21
20,"COc1ccc(Cl)cc1C(=O)Nc1cccc(-c2nnc(-c3ccco3)o2)c1 [compound 80, 5-chloro-N-{3-[5-(2-furyl)-1,3,4-oxadiazol-2-yl]phenyl}-2-methoxybenzamide]",5.99
21,"CCOC(=O)c1cc(NC(=O)c2ccccc2F)ccc1N1CCOCC1 [compound 40, ethyl 5-[(2-fluorobenzoyl)amino]-2-(4-morpholinyl)benzoate]",10.29
22,"COc1ccc(NC(=O)C2CCN(C(=O)c3ccc(F)cc3)CC2)c(OC)c1 [compound 154, N-(2,4-dimethoxyphenyl)-1-(4-fluorobenzoyl)-4-piperidinecarboxamide]",2.30
